Data reported in ChEMBL document CHEMBL1122154, “Serotonin receptor affinity of cathinone and related analogues” (J Med Chem, 1982).

These compounds were tested against Serotonin (5-HT) receptor (assay: Affinity for 5-hydroxytryptamine receptor was determined using male Dawley rat fundus preparation).
Format: protein assay

Row | SMILES | pA2
1 | COc1ccc2c(c1)C(CN)CCO2 (stereo not given) | 5.94
2 | NC1CCc2ccccc2C1=O (stereo not given) | 6.04
3 | NC1CCc2ccccc2C1 (stereo not given) | 5.61
4 | NCC1=CCOc2ccccc21 | 4.94
5 | COc1ccc2c(c1)C(CN)=CCO2 | 6.12
6 | NCC1=CCCc2ccccc21 | 5.81
7 | NCC(N)c1ccccc1 (racemic) | 4.9
8 | COc1ccc(C(=O)C(C)N)cc1OC (racemic) | 6.14
9 | CC(N)C(=O)c1ccc(O)cc1 (racemic) [HYDROXYLATED COMPLETELY DELAKYLATED DIETHYLPROPION] | 5.3
10 | CC(N)C(=O)c1ccccc1 (stereo not given) [DEALKYLATED DIETHYLPROPION] | 5.86
